Assay results published in patent US9056152B2, “Medical device with crystalline drug coating” (Boston Scientific Scimed, Inc., priority 2011, dated 2015).

Experiments:
[1] = Porcine animal study of everolimus coated stents: drug in artery tissue (LC/MS) and drug remaining on stent (HPLC); type: in vivo, common swine; details: explanted at 28 days; for Tissue content at 28 days: 130 μg on 12 mm stents implanted in coronary and internal thoracic arteries of swine, drug in arteries by LC/MS; for % drug left on stent at 28 days: 130 μg on 12 mm stents implanted in swine arteries, drug remaining on stent by HPLC
Experimental: Stents coated with either crystalline or amorphous everolimus (130 μg on 12 mm stents) were implanted in the coronary arteries and internal thoracic arteries of common swine. The stented vessels were explanted after 3 hrs, 24 hrs, 7, 14 and 28 days. N=3 stents per timepoint were used. After sacrifice the stents were removed from the arteries and the amount of drug in the arteries was determined by LC/MS. The amount of drug remaining on the stent was determined by HPLC.

[2] = Everolimus solubility in water @ 37° C., amorphous vs crystalline form; type: physicochemical; details: data shown in FIG. 1
Experimental: FIG. 1 is a graph comparing everolimus solubility data in water @ 37° C. for amorphous and crystalline forms.

[3] = listed as crystalline everolimus

Row | Tissue content at 28 days [1] [ng/mg] | Tissue content at 28 days ([1]; listed as amorphous everolimus) | % drug left on stent at 28 days [1] [%] | % drug left on stent at 28 days ([1]; listed as amorphous drug) | Tissue content at 28 days [1, 3] [ng/mg] | % drug left on stent at 28 days [1, 3] [%] | Compound | solubility in water [2]
1 | 0.04 | essentially no drug in the tissue | 0 | no drug remaining on the stents |  |  | CO[C@H]1C[C@@H]2CC[C@@H](C)[C@@](O)(O2)C(=O)C(=O)N2CCCC[C@H]2C(=O)O[C@H]([C@H](C)C[C@@H]2CC[C@@H](OCCO)[C@H](OC)C2)CC(=O)[C@H](C)/C=C(\C)[C@@H](O)[C@@H](OC)C(=O)[C@H](C)C[C@H](C)/C=C/C=C/C=C/1C [Amorphous Everolimus, 40-O-(2-Hydroxyethyl)rapamycin] | 
2 | 6.1 |  | 25.8 |  | 6 | 25 | CO[C@H]1C[C@@H]2CC[C@@H](C)[C@@](O)(O2)C(=O)C(=O)N2CCCC[C@H]2C(=O)O[C@H]([C@H](C)C[C@@H]2CC[C@@H](OCCO)[C@H](OC)C2)CC(=O)[C@H](C)/C=C(\C)[C@@H](O)[C@@H](OC)C(=O)[C@H](C)C[C@H](C)/C=C/C=C/C=C/1C [Crystalline Everolimus, 40-O-(2-Hydroxyethyl)rapamycin] | much lower solubility in water than amorphous everolimus
